Patent publication US6482802B1 (Endowment for Research in Human Biology, Inc., priority 1998, dated 2002)
“And” between values parts separate entries of the source, which are not always exact repeats. Equal entries are not always repeated. “Also recorded” adds a separate entry of the source.

Columns and labels:
[1] = system: HUVE cells; assay: bFGF-induced proliferation of HUVE cells, aminoglycoside antibiotics; type: cell-based, human; conditions: aminoglycoside 100 μM; for % Inhibition of bFGF-induced cell proliferation / bFGF (10 ng/ml) Cell Numbers: bFGF 10 ng/ml; for bFGF (10 ng/ml) Cell Numbers / Control (cell number without bFGF): 48 hr; for bFGF (10 ng/ml) Cell Numbers: control 99000 ± 1000; for Control (cell number without bFGF): no bFGF, control 61300 ± 500
Description: (§1) HUVE cells were seeded at 4×10^3 cells/cm^2 in attachment factor (Cell Systems Corp.)-coated 35 mm dishes in HE-SFM, and incubated with 1 μg/ml angiogenin in the presence or absence of inhibitors at 37° C. for 48 hr. Cell were detached by trypsinization and cell numbers were determined with a Coulter counter.
The ability of the other members of the aminoglycoside antibiotic family to inhibit bFGF-induced proliferation of HUVE cells was examined in a similar manner as for angiogenin as described in Section 6.1.1.5, above. HUVE cells, passage 9, were seeded on attachment-factor coated dishes at 50,000 cells per 35 mm dish in HE-SFM. Aminoglycoside antibiotics were added and the cells were incubated with or without […] at 37° C. for 48 hr.

[2] = system: HUVE cells; assay: Cytotoxicity against HUVE cells; type: cell-based, human; conditions: concentration not given
Description: Human umbilical vein endothelial (HUVE) cells were purchased from Cell Systems Corp. (Kirkland, Wash.). […] Cells between passages 5 and 12 inclusive were used for all experiments. Cell numbers were determined with a Coulter counter, and cell viability was measured by trypan blue dye exclusion assay.

[3] = system: chorioallantoic membrane (CAM) of chick embryos; assay: CAM assay, angiogenin-induced angiogenesis; type: in vivo; conditions: for inhibition of angiogenin-induced angiogenesis in CAM assay: in vivo
Description: (§2) Angiogenesis was measured on the CAM by the method of Knighton et al. (Knighton et al., 1977, Br. J. Cancer 35:347-356) essentially as described (Fett et al., 1985, Biochemistry 24:5480-5486). Fertilized chicken eggs were kept at 18° C. for 2 days and then incubated in a humidified environment at 37° C. for 3 days. Albumin was aspirated from the embryos and after 24 hours, a “window” was cut through the shell and covered with clear tape. […] After 48-68 hours at 37° C., the growth of blood vessels was observed microscopically and recorded as either positive or negative. A positive response (i.e., an angiogenic response) has a typical “spokewheel” appearance.

[4] = system: HUVE cells; assay: Angiogenin-induced proliferation of HUVE cells; type: cell-based, human; conditions: for inhibition of angiogenin-induced cell proliferation: aminoglycoside 100 μM (Table 3); for Cell number / percent of cell number in the presence of 1 μg/ml angiogenin relative to the corresponding control: aminoglycoside 100 μM; for percent of cell number in the presence of 1 μg/ml angiogenin relative to the corresponding control: none: 120
Description: as §1

[5] = system: nuclear translocation of 125I-angiogenin in HUVE cells; assay: Nuclear translocation of 125I-angiogenin in HUVE cells; conditions: for Nuclear 125I-angiogenin: 37° C. 30 min, control 3090 ± 260; for Nuclear 125I-angiogenin / % inhibition of nuclear translocation of angiogenin: 125I-angiogenin 1 μg/ml 30 min; for effect on nuclear translocation of 125I-angiogenin: HUVE cells, concentrations as in Table 1
[6] = system: chorioallantoic membrane (CAM) of chick embryos; assay: CAM assay, aFGF-induced angiogenesis; type: in vivo; conditions: aFGF 10 ng alone
Description: as §2

[7] = system: chorioallantoic membrane (CAM) of chick embryos; assay: CAM assay, EGF-induced angiogenesis; type: in vivo; conditions: EGF 10 ng alone
Description: as §2

[8] = system: chorioallantoic membrane (CAM) of chick embryos; assay: CAM assay, bFGF-induced angiogenesis; type: in vivo; conditions: bFGF 10 ng alone
Description: as §2

[9] = system: chorioallantoic membrane (CAM) of chick embryos; assay: CAM assay, VEGF-induced angiogenesis; type: in vivo; conditions: VEGF 10 ng alone
Description: as §2

[10] = with angiogenin 1 μg/ml, none: 62,500 ± 100
[11] = without angiogenin, none: 52,000 ± 100

## [H]/N=C(/N)N[C@H]1[C@H](O)[C@@H](O)[C@H](O[C@@H]2O[C@@H](C)[C@](O)(C=O)[C@H]2O[C@@H]2O[C@@H](CO)[C@H](O)[C@@H](O)[C@@H]2NC)[C@@H](N/C(N)=N\[H])[C@@H]1O [Streptomycin, streptomycin]
[1]
  significant inhibitory effect on cell proliferation induced by bFGF: no
  % Inhibition of bFGF-induced cell proliferation: 0%
  bFGF (10 ng/ml) Cell Numbers: 104200 ± 400
  Control (cell number without bFGF): 62300 ± 600
[2]
  cytotoxicity against HUVE cells: no cytotoxicity
[3]
  inhibition of angiogenin-induced angiogenesis in CAM assay: do not inhibit angiogenin-induced angiogenesis
[4]
  inhibition of angiogenin-induced cell proliferation: None
  percent of cell number in the presence of 1 μg/ml angiogenin relative to the corresponding control: 115%
[4]; [10]
  Cell number: 59,900 ± 900
[4]; [11]
  Cell number: 51,900 ± 1,300

## NC[C@@H]1O[C@H](O[C@H]2[C@@H](O)[C@H](O[C@@H]3[C@@H](O)[C@H](N)C[C@H](N)[C@H]3O[C@H]3O[C@H](CO)[C@@H](O)[C@H](O)[C@H]3N)O[C@@H]2CO)[C@H](N)[C@@H](O)[C@@H]1O [Paromomycin, paromomycin]
[2]
  cytotoxicity against HUVE cells: no cytotoxicity
[4]
  inhibition of angiogenin-induced cell proliferation: did not inhibit angiogenin-induced cell proliferation; also recorded: no inhibitory activity at all
  percent of cell number in the presence of 1 μg/ml angiogenin relative to the corresponding control: 116%
[4]; [10]
  Cell number: 58,900 ± 400
[4]; [11]
  Cell number: 50,900 ± 500

## COc1ccc2c(c1)CC[C@@H]1[C@@H]2CC[C@]2(C)[C@@H](NCCCCCCN3C(=O)C=CC3=O)CC[C@@H]12 [U-73122]
[5]; inhibitor 10 μM
  Nuclear 125I-angiogenin: 2140 ± 30 cpm
[5]; inhibitor 10 μM, 10 µM
  % inhibition of nuclear translocation of angiogenin: 30% and 31%

## CN[C@@H]1C[C@H]2O[C@@](C)([C@@H]1OC)n1c3ccccc3c3c4c(c5c6ccccc6n2c5c31)C(=O)NC4 [Staurosporine, staurosporine]
[5]
  effect on nuclear translocation of 125I-angiogenin: only marginally inhibitory; also recorded: do not inhibit nuclear translocation of angiogenin
[5]; inhibitor 100 nM
  Nuclear 125I-angiogenin: 2710 ± 70 cpm

## aFGF: acidic fibroblast growth factor
[6]; 49 total eggs
  Positive eggs: 36
[6]; water 21
  % Positive: 73%

## EGF: epidermal growth factor
[7]; 26 total eggs
  Positive eggs: 18
[7]; water 21
  % Positive: 69%

## O=c1c(-c2ccc(O)cc2)coc2cc(O)cc(O)c12 [Genistein, genistein]
[5]
  effect on nuclear translocation of 125I-angiogenin: no effect; also recorded: do not inhibit nuclear translocation of angiogenin
[5]; Homo sapiens, 0.5 h, read-out: % inhibition of nuclear translocation of angiogenin
  inhibition at 100 µM: 0%
[5]; inhibitor 100 μM
  Nuclear 125I-angiogenin: 3300 ± 170 cpm

## bFGF: basic fibroblast growth factor
[8]; 37 total eggs
  Positive eggs: 29
[8]; water 21
  % Positive: 78%

## gentamicin
[1]
  significant inhibitory effect on cell proliferation induced by bFGF: no
  % Inhibition of bFGF-induced cell proliferation: 5%
  bFGF (10 ng/ml) Cell Numbers: 98400 ± 1900
  Control (cell number without bFGF): 61800 ± 1200
[2]
  cytotoxicity against HUVE cells: no cytotoxicity
[4]
  inhibition of angiogenin-induced cell proliferation: None
  percent of cell number in the presence of 1 μg/ml angiogenin relative to the corresponding control: 121%
[4]; [10]
  Cell number: 55,700 ± 900
[4]; [11]
  Cell number: 45,700 ± 500

## Angiogenin: Human angiogenin (Met-1), recombinant product from an Escherichia coli expression system
[3]; angiogenin 10 ng alone, water 20
  % Positive (angiogenic response): 55%
[4]; angiogenin 1 μg/ml, no neomycin
  increase of cell number after 48 hr: 35%

## NCC[C@H](O)C(=O)N[C@@H]1C[C@H](N)[C@@H](O[C@H]2O[C@H](CN)[C@@H](O)[C@H](O)[C@H]2O)[C@H](O)[C@H]1O[C@H]1O[C@H](CO)[C@@H](O)[C@H](N)[C@H]1O [Amikacin, amikacin]
[1]
  significant inhibitory effect on cell proliferation induced by bFGF: no
  % Inhibition of bFGF-induced cell proliferation: 11%
  bFGF (10 ng/ml) Cell Numbers: 97600 ± 1300
  Control (cell number without bFGF): 63000 ± 900
[2]
  cytotoxicity against HUVE cells: no cytotoxicity
[3]
  inhibition of angiogenin-induced angiogenesis in CAM assay: do not inhibit angiogenin-induced angiogenesis
[4]
  inhibition of angiogenin-induced cell proliferation: None
  percent of cell number in the presence of 1 μg/ml angiogenin relative to the corresponding control: 118%
[4]; [10]
  Cell number: 61,000 ± 400
[4]; [11]
  Cell number: 51,700 ± 200

## COc1ccc2c(c1)CC[C@@H]1[C@@H]2CC[C@]2(C)[C@@H](NCCCCCCN3C(=O)CCC3=O)CC[C@@H]12 [U-73343]
[5]
  effect on nuclear translocation of 125I-angiogenin: no effect
[5]; inhibitor 10 μM
  Nuclear 125I-angiogenin: 2890 ± 100 cpm
  % inhibition of nuclear translocation of angiogenin: 6%

## NC[C@H]1O[C@H](O[C@H]2[C@H](O)[C@@H](O[C@H]3O[C@H](CO)[C@@H](O)[C@H](N)[C@H]3O)[C@H](N)C[C@@H]2N)[C@H](O)[C@@H](O)[C@@H]1O [Kanamycin, kanamycin]
[1]
  % Inhibition of bFGF-induced cell proliferation: 8%
  bFGF (10 ng/ml) Cell Numbers: 98000 ± 2500
  Control (cell number without bFGF): 62600 ± 1100
[2]
  cytotoxicity against HUVE cells: no cytotoxicity
[4]; [10]
  Cell number: 58,900 ± 200
[4]; [11]
  Cell number: 48,800 ± 400
[4]
  percent of cell number in the presence of 1 μg/ml angiogenin relative to the corresponding control: 121%

## VEGF
[9]; 27 total eggs
  Positive eggs: 17
[9]; water 21
  % Positive: 63%
